Where a name gives a salt, the structure may show the parent alone.
How the values were obtained:
Assay in all cases: Activity in vitro: minimum inhibitory concentration
Assay type in all cases: cell-based
[1] = test system: Acinetobacter anitratus; details: Acinetobacter calcoaceticus, gram negative
From the text: (§1) Activity in vitro: Minimum inhibitory concentration (μg/ml)

[2] = test system: Citrobacter freundii
From the text: as §1

[3] = test system: Enterobacter aerogenes; details: Klebsiella aerogenes
From the text: as §1

[4] = test system: Enterobacter cloacae
From the text: as §1

[5] = test system: Escherichia coli
From the text: as §1

[6] = test system: Klebsiella pneumoniae
From the text: as §1

[7] = test system: Proteus inconstans; details: Providencia alcalifaciens, gram negative
From the text: as §1

[8] = test system: Proteus mirabilis
From the text: as §1

[9] = test system: Proteus rettgeri; details: Providencia rettgeri, gram negative
From the text: as §1

[10] = test system: Proteus vulgaris
From the text: as §1

[11] = test system: Serratia marcescens
From the text: as §1

[12] = test system: Streptococcus pyogenes; details: gram positive
From the text: as §1

[13] = Citrobacter freundii Strain 1, gram negative
[14] = Citrobacter freundii Strain 2, gram negative
[15] = Enterobacter aerogenes Strain 1, gram negative
[16] = Enterobacter aerogenes Strain 2, gram negative
[17] = Enterobacter cloacae Strain 1, gram negative
[18] = Enterobacter cloacae Strain 2, gram negative
[19] = Escherichia coli Strain 1, gram negative
[20] = Escherichia coli Strain 2, gram negative
[21] = Escherichia coli Strain 3, gram negative
[22] = Escherichia coli Strain 4, gram negative
[23] = Klebsiella pneumoniae Strain 1, gram negative
[24] = Klebsiella pneumoniae Strain 2, gram negative
[25] = Klebsiella pneumoniae Strain 3, gram negative
[26] = Proteus mirabilis Strain 1, gram negative
[27] = Proteus mirabilis Strain 2, gram negative
[28] = Proteus vulgaris Strain 1, gram negative
[29] = Proteus vulgaris Strain 2, gram negative
[30] = Proteus vulgaris Strain 3, gram negative
[31] = Serratia marcescens Strain 1, gram negative
[32] = Serratia marcescens Strain 2, gram negative

Row | MIC [1] | MIC [2, 13] | MIC [2, 14] | MIC [3, 15] | MIC [3, 16] | MIC [4, 17] | MIC [4, 18] | MIC [5, 19] | MIC [5, 20] | MIC [5, 21] | MIC [5, 22] | MIC [6, 23] | MIC [6, 24] | MIC [6, 25] | MIC [7] | MIC [8, 26] | MIC [8, 27] | MIC [9] | MIC [10, 28] | MIC [10, 29] | Compound | other results
1 | 25 µg/mL | 0.19 µg/mL | 0.05 µg/mL | 0.19 µg/mL | 0.1 µg/mL | 3.1 µg/mL | 0.19 µg/mL | 0.025 µg/mL | 0.19 µg/mL | 0.1 µg/mL | 0.1 µg/mL | 0.1 µg/mL | 0.025 µg/mL | 0.1 µg/mL | ≤ 0.006 µg/mL | 0.025 µg/mL | 0.39 µg/mL | ≤ 0.006 µg/mL | 0.1 µg/mL | 0.1 µg/mL | CO/N=C(\C(=O)N[C@@H]1C(=O)N2C(C(=O)O)=C(CSc3nc(=O)c(O)nn3C)C[S@+]([O-])[C@H]12)c1csc(N)n1 [Derivative A, disodium salt of (6R,7R)-7-[2-(2-amino-4-thiazolyl)-2-[(Z)-methoxyimino]acetamido]-3-[[(2,5-dihydro-6-hydroxy-2-methyl-5-oxo-as-triazin-3-yl)thio]methyl]-8-oxo-5-thia-1-azabicyclo[4.2.0]oct-2-ene-2-carboxylic acid 5-(s)-oxide] | MIC [10, 30]: 0.05 µg/mL; MIC [11, 31]: 0.39 µg/mL; MIC [11, 32]: 0.19 µg/mL; MIC [12]: 1.6 µg/mL
2 | 100 µg/mL | 0.19 µg/mL | 0.19 µg/mL | 0.39 µg/mL | 0.1 µg/mL | 6.3 µg/mL | 0.39 µg/mL | 0.05 µg/mL | 0.39 µg/mL | 0.19 µg/mL | 0.39 µg/mL | 0.39 µg/mL | 0.19 µg/mL | 0.19 µg/mL | 0.025 µg/mL | 0.1 µg/mL | 0.78 µg/mL | 0.05 µg/mL | 0.39 µg/mL | 0.19 µg/mL | CO/N=C(\C(=O)N[C@@H]1C(=O)N2C(C(=O)O)=C(CSc3nc(=O)c(O)nn3C)CS(=O)(=O)[C@H]12)c1csc(N)n1 [Derivative B, disodium salt of (6R,7R)-7-[2-(2-amino-4-thiazolyl)-2-[(Z)-methoxyimino]acetamido]-3-[[(2,5-dihydro-6-hydroxy-2-methyl-5-oxo-as-triazin-3-yl)thio]methyl]-8-oxo-5-thia-1-azabicyclo[4.2.0]oct-2-ene-2-carboxylic acid 5,5-dioxide] | MIC [10, 30]: 0.19 µg/mL; MIC [11, 31]: 1.6 µg/mL; MIC [11, 32]: 0.78 µg/mL; MIC [12]: 3.1 µg/mL

Source: patent US4349672A, “Cephalosporin derivatives” (Hoffmann-La Roche Inc., priority 1979, dated 1982)
